The numbers were not newly measured in patent US20110171124A1, “In situ methods for monitoring the EMT status of tumor cells in vivo” (OSI Pharmaceuticals, Inc., priority 2009, published 2011), which cites them from elsewhere.

The data set deals with NSCLC. Particulars: phase III, monotherapy, advanced treatment-refractory NSCLC patients.

On to `C#Cc1cccc(Nc2ncnc3cc(OCCOC)c(OCCOC)cc23)c1` [erlotinib, [6,7-bis(2-methoxyethoxy)-4-quinazolin-4-yl]-(3-ethynylphenyl)amine], for which the disease progression result is reported as “delayed disease progression”, the survival result is given as “significantly prolonged survival” and the “worsening of lung cancer-related symptoms” value was “delayed worsening of lung cancer-related symptoms”.
